Measurements as given in ChEMBL document CHEMBL2062367, “Stigonemapeptin, an Ahp-containing depsipeptide with elastase inhibitory activity from the bloom-forming freshwater cyanobacterium Stigonema sp” (J Nat Prod, 2012).
Active and inactive are the calls of the source.

What was measured:
[1] = species on record: Sus scrofa; assay: Inhibition of pig pancreatic trypsin using Nalpha-benzoyl-DL-arginine-4-nitroanilide as substrate at 10 uM incubated for 15 mins prior to substrate addition measured ever 30 secs for 30 mins by spectroscopy
[2] = species on record: Homo sapiens; assay: Inhibition of 20S proteasome at 25 uM
[3] = test system: HT-29; assay: Cytotoxicity against human HT-29 cells at 25 uM; type: functional, cell-based

C/C=C1/NC(=O)[C@@H](NC(=O)[C@H](CCC(N)=O)NC(=O)[C@@H]2CCCN2C=O)[C@@H](C)OC(=O)[C@H](C(C)C)NC(=O)[C@H](Cc2ccc(O)cc2)N(C)C(=O)[C@H](Cc2ccccc2)N2C(=O)[C@H](CC[C@H]2O)NC1=O
inactive: inhibition [1] | inhibition [2] | Activity [3]
